From patent publication US8143402B2, “Polymorphic forms of a macrocyclic inhibitor of HCV” (Tibotec Pharmaceuticals Ltd., priority 2007, dated 2012)
Like-named read-outs stand apart in the source and are kept apart here.

Assays:
Type in all cases: physicochemical
[1] = Intrinsic dissolution; details: compared with Form I
[2] = Solubility of Form I and Form II in different solvents (excess shaken 24 hours at 20° C., filtration, UV spectrometry); details: for solubility thermodynamic at 24 h: thermodynamic from solid, read-out: Solubility in g/100 mL of solution
Method: An excess of product (Form I or Form II, where appropriate) was shaken with the relevant solvent during 24 hours at 20° C. After filtration, the concentration of the product in solution was determined with UV spectrometry.

[3] = Stability of the polymorphic forms; details: compared among the polymorphic forms
[4] = Hygroscopicity of the polymorphic forms; details: compared among the polymorphic forms
[5] = 1-methoxy-2-propanol, 24 hours at 20° C.
[6] = 2-propanol/dichloromethane (97/3) (v/v), 24 hours at 20° C.
[7] = 2-propanone, 24 hours at 20° C.
[8] = 4-methyl-2-pentanone, 24 hours at 20° C.
[9] = acetonitrile, 24 hours at 20° C.
[10] = ethanol/water (95/5) (v/v), 24 hours at 20° C.

SMILES	Solubility in g/100 mL of solution [2, 5]	Solubility in g/100 mL of solution ([2]; 2-butanone, 24 hours at 20° C.)	Solubility in g/100 mL of solution [2, 6]	Solubility in g/100 mL of solution ([2]; 2-propanol, 24 hours at 20° C.)	Solubility in g/100 mL of solution [2, 7]	Solubility in g/100 mL of solution [2, 8]	Solubility in g/100 mL of solution [2, 9]	Solubility in g/100 mL of solution [2, 10]	Solubility in g/100 mL of solution ([2]; ethanol, 24 hours at 20° C.)	Solubility in g/100 mL of solution ([2]; methanol, 24 hours at 20° C.)	Solubility in g/100 mL of solution ([2]; toluene, 24 hours at 20° C.)	Stability of the polymorph form [3]	also measured
COc1ccc2c(O[C@@H]3C[C@H]4C(=O)N[C@]5(C(=O)NS(=O)(=O)C6CC6)C[C@H]5/C=C\CCCCN(C)C(=O)[C@@H]4C3)cc(-c3nc(C(C)C)cs3)nc2c1C [Form II]	1.6 g/100 mL	2.5 g/100 mL	0.19 g/100 mL	0.11 g/100 mL	1.2 g/100 mL	0.81 g/100 mL	0.20 g/100 mL	0.27 g/100 mL	0.17 g/100 mL	0.29 g/100 mL	0.43 g/100 mL	less stable but nevertheless sufficiently stable	Intrinsic dissolution [1]: greater than that of Form I; Solubility in g/100 mL of solution ([2]; 1-butanol, 24 hours at 20° C.): 0.31 g/100 mL
COc1ccc2c(O[C@@H]3C[C@H]4C(=O)N[C@]5(C(=O)NS(=O)(=O)C6CC6)C[C@H]5/C=C\CCCCN(C)C(=O)[C@@H]4C3)cc(-c3nc(C(C)C)cs3)nc2c1C [Form I]	0.82 g/100 mL	0.87 g/100 mL	0.045 g/100 mL	0.027 g/100 mL	0.66 g/100 mL	0.28 g/100 mL	0.075 g/100 mL	0.078 g/100 mL	0.050 g/100 mL	0.056 g/100 mL	0.086 g/100 mL	most stable form	Hygroscopicity [4]: least hygroscopic form; Solubility in g/100 mL of solution ([2]; N,N-dimethylacetamide*, 125 mg of Form I was dissolved in 0.5 mL of N,N-dimethylacetamide): >20 g/100 mL; Solubility in g/100 mL of solution ([2]; N,N-dimethylacetamide, 24 hours at 20° C.): 16 g/100 mL; Solubility in g/100 mL of solution ([2]; acetic acid, 24 hours at 20° C.): 1.7 g/100 mL; solubility thermodynamic at 24 h ([2]; aqueous with cosolvent or surfactant or cyclodextrin, acetic acid/water (10/90) (v/v) (pH = 2.2), 24 hours at 20° C.): < 10 µg/mL; Solubility in g/100 mL of solution ([2]; dichloromethane, 24 hours at 20° C.): 8.5 g/100 mL; Solubility in g/100 mL of solution ([2]; ethyl acetate, 24 hours at 20° C.): 0.21 g/100 mL; Solubility in g/100 mL of solution ([2]; methanol/dichloromethane (50/50) (v/v), 24 hours at 20° C.): 8.3 g/100 mL; Solubility in g/100 mL of solution ([2]; tetrahydrofuran, 24 hours at 20° C.): 7.0 g/100 mL; solubility thermodynamic at 24 h ([2]; water (pH = 5.0), 24 hours at 20° C.): < 10 µg/mL
